“Also recorded” adds a separate entry of the source. Structures can show the parent of a compound that is named as a salt.
Columns and labels:
[1] = system: BV-2 immortalized mouse microglia; test: Metabolite time course in BV-2 microglia (Ki67 proliferation, CSF1R and F4/80 surface staining); format: cell-based; conditions: BV-2 cells, 32 ug/mL of each compound; for proliferation (percent Ki67+ cells): 5 days (120 h); for CSF1R cell surface staining intensity (MFI) / F4/80 cell surface staining intensity (MFI): 5 days
Protocol: FIG. 26. Representation of the outline of metabolite time course experiment utilizing BV-2 immortalized mouse microglia. BV-2 cells are plated with either media alone, or with a cocktail of the 4 metabolites identified in slide 1 at a final concentration of 32 ug/mL of each compound at the indicated time points. Cells are then harvested and stained using conventional methods for either cell surface markers or the proliferation marker Ki67.
FIG. 27. Metabolite treatment increases proliferative capacity and alters the cell surface profile of BV-2 cells. Results of metabolite time course in BV-2 cells. […] Each bar is the average of 4 separate wells+/−SEM. P-vales calculated using two-way ANOVA.
FIG. 29. […] In order to test the ability of the AhR ligand indoxyl sulfate in BV-2 microglia, cells were treated for 5 days with either a cocktail of metabolites or with indoxyl sulfate (32 ug/mL of all compounds tested). […] Each bar is the average of 4 separate wells+/−SEM. P-vales calculated using two-way ANOVA.
Purified cultures, or immortalized equivalents were used. The cells were treated with a cocktail of the 4 metabolites to evaluate microglial response to metabolite treatment (FIG. 26). […] There is a relatively linear effect with increasing proportions of proliferation or F4/80, CSF1R high cells with increasing exposure to the metabolite cocktail.
We next asked if individual metabolites were responsible for the biological activity of the metabolite cocktail or whether multiple metabolites were required.

BV-2 cells [2] = test: AhR blockade of metabolite-induced changes in BV-2 microglia; format: cell-based, mouse; conditions: metabolite cocktail 32 ug/mL each plus CH223191 5 uM, 5 days
Protocol: FIG. 28. […] Results of AhR blockade on metabolite-induced proliferation and cell surface profile changes in BV-2 microglia. BV-2 cells were treated with vehicle (DMSO), metabolite cocktail (32 ug/mL of each metabolite), or metabolite cocktail with the AhR inhibitor CH223191 (5 uM final concentration in DMSO) for 5 days before performing the same analysis as in slide 5 (CSF1R and F4/80 or Ki67 staining). While the increase in F4/80 and CSF1R intensity is dependent on intact AhR signaling (top row), AhR signaling is dispensable for metabolite-induced proliferation (bottom row). Each bar is the average of 4 separate wells+/−SEM. P-vales calculated using two-way ANOVA.

BV-2 cells [3] = test: BV-2 phagocytosis assay with apoptotic N2A bait cells (CypHer5); format: cell-based, mouse; conditions: metabolite cocktail plus CH223191 5 uM
Text: FIG. 32. Outline of phagocytosis assay in BV-2 cells. Briefly, apoptotic N2A cells (“bait”) are generated by UV irradiation and loaded with the pH sensitive dye CypHer5 before co-culture with Hoechst stained BV-2 cells. After washing, BV-2 cells are the collected and analyzed by flow cytometry.
FIG. 33. […] Each bar is the average of 4 separate wells +/−SEM. P-vales calculated using two-way ANOVA.
Finally, we asked whether treatment with metabolites altered the ability of BV-2 microglia to engulf apoptotic N2A cells as outlined above. In this assay the phagocytes (in this case BV-2 cells) are treated with metabolites or vehicle for 120 h and then loaded with Hoechest dye. N2A cells are killed with UV radiation (confirmed by staining with viability dyes and Annexin V to distinguish apoptotic from necrotic cells) and then loaded with the pH sensitive dye CypHer5 which only fluoresces in the phagolysosome. They are then fed to BV-2 cells for a predetermined length of time (5:1 ratio of N2A to BV-2, 1 h of eating) before being harvested and analyzed by flow cytometry (FIG. 32).

| Compound | proliferation (percent Ki67+ cells) [1] | proliferation (percent Ki67+ cells) ([1]; listed as IS) | CSF1R cell surface staining intensity (MFI) [1] | F4/80 cell surface staining intensity (MFI) [1] | CSF1R cell surface staining intensity (MFI) ([1]; listed as IS) | F4/80 cell surface staining intensity (MFI) ([1]; listed as IS) | metabolite-induced increase in CSF1R intensity under AhR inhibition (BV-2 cells [2]) | metabolite-induced increase in F4/80 intensity under AhR inhibition (BV-2 cells [2]) | metabolite-induced proliferation (Ki67) under AhR inhibition (BV-2 cells [2]) | metabolite-induced phagocytosis under AhR inhibition (BV-2 cells [3]) | metabolite-induced phagocytosis under AhR inhibition (BV-2 cells [3]; listed as Met+CH) |
| --- | --- | --- | --- | --- | --- | --- | --- | --- | --- | --- | --- |
| O=S(=O)(O)Oc1c[nH]c2ccccc12 [indoxyl sulfate] | nor does it increase the proliferative capacity | unable to significantly change either cell surface levels of F4/80 or CSF1R or to increase proliferation | does not increase CSF1R or F4/80 protein staining intensity | does not increase CSF1R or F4/80 protein staining intensity | unable to significantly change | unable to significantly change | – | – | – | – | – |
| Cc1ccccc1N=Nc1ccc(NC(=O)c2ccnn2C)c(C)c1 [CH223191] | – | – | – | – | – | – | required for the upregulation of CSF1R and F4/80; also recorded: reduces metabolite induced changes in surface markers | required for the upregulation of CSF1R and F4/80; also recorded: reduces metabolite induced changes in surface markers | dispensable for enhancement of proliferation; also recorded: does not change proliferation | significance is abolished | NOT dependent on AhR signaling |

— US20230026402A1, “MICROBIOTA BASED THERAPIES TO PROMOTE MENTAL HEALTH” (Cornell University, priority 2019, published 2023)
